Tested on: HepG2 cells
Assay: Influence of peptide-binding MSC-derived / HEK293 cell-derived exosome solutions on cell growth (Experimental Example 5)
Format: cell-based
Protocol: After the sample medium was added, culturing was performed for 48 hours, and using the 8-channel pipette, washing was performed twice with 100 μl of a serum-free DMEM medium (H-Glc). A 10% FBS (exosome-depleted) DMEM (H-Glc) medium was added at 100 μl/well. In addition, after culturing was performed for 48 hours, Premix WST-1 Cell Proliferation Assay System (reagent for cell growth measurement, commercially available from Takara Bio Inc.) was added at 10 μl/well, and color development was performed by performing incubation for 2 hours under […] conditions. The absorbance at 440 nm was measured using “Synergy HTX Multimode Plate Reader” (culture plate absorptiometer, commercially available from Bio Tek Instruments, Inc.). The average absorbance of the control group (no liposome added) was set as 100, the percentage of the absorbance of each well was calculated and used as an index of the degree of cell growth. Here, the Tukey Kramer method was used for the multiple comparison test.
A solution of a peptide having an amino acid sequence shown in SEQ ID NO: 1 was added to a 20 mM borate buffer solution (pH 8.6). In addition, Lipofectamine (registered trademark) (solution for transfection) was dissolved in a serum-free DMEM to prepare a 10% Lipofectamine solution. […]

WEAALAEALAEALAEHLAEALAEALEALAA (Amino acid sequence derived from a protein fragment) [peptide]
% with respect to control group (degree of cell growth) (Table 6A, Adipo-MSC-derived exosome 40 μg/ml, peptide SEQ ID NO: 1, DOX liposome 40 μM, n=6): 147.2%
% with respect to control group (degree of cell growth) (Table 6B, HEK293 cell-derived exosome 40 μg/ml, peptide SEQ ID No. 1, DOX liposome 40 μM): 141.3%

— patent US20250009903A1, “PEPTIDE-BINDING HYBRID LIPOSOME EXOSOME, PEPTIDE-BINDING EXOSOME, COMPOSITION CONTAINING SAME, AND METHOD OF FORMING SAME” (SEKISUI CHEMICAL CO., LTD., priority 2021, published 2025)
